Data: patent US10287305B2, “Substituted piperidine compound and use thereof” (Takeda Pharmaceutical Company Limited, priority 2016, dated 2019)

Molecular target: human orexin type 2 receptor (hOX2R) (Homo sapiens (Human), UniProt O43614)
Test: Measurement of orexin type 2 receptor agonist activity (Experimental Example 2-1, FLIPR TETRA, intracellular Ca2+)
Assay type: cell-based
Settings: CHO dhfr- cells expressing hOX2R, FLIPR TETRA, Fluo-4AM; for Emax: read-out: Emax (%)

human orexin type 2 receptor (hOX2R), sequence (O43614 whole entry): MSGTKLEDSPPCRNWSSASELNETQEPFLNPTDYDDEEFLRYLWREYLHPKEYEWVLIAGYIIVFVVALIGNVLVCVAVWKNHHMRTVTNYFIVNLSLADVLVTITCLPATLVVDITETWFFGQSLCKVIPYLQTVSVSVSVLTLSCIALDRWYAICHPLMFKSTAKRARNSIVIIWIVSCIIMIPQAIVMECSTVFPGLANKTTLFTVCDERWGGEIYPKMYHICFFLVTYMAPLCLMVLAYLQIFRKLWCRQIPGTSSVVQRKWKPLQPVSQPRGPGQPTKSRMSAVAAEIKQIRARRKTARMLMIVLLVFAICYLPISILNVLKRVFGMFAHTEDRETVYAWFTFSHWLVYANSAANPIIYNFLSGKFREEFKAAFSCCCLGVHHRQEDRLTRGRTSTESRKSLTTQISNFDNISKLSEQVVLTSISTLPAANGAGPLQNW

EC50 [nM]	Emax [%]	SMILES
1000	97	CN(C)CC(=O)N1CCC[C@H](NS(C)(=O)=O)[C@@H]1CO[C@H]1CC[C@@H](c2ccccc2)CC1 (relative stereo) [Example 133, N-(cis-1-(N,N-dimethylglycyl)-2-(((cis-4-phenylcyclohexyl)oxy)methyl)piperidin-3-yl)methanesulfonamide]
22	94	CS(=O)(=O)N[C@H]1CCCN(C(=O)Cn2cccn2)[C@H]1CO[C@H]1CC[C@@H](c2ccccc2)CC1 (relative stereo) [Example 138, N-(cis-2-(((cis-4-phenylcyclohexyl)oxy)methyl)-1-(1H-pyrazol-1-ylacetyl)piperidin-3-yl)methanesulfonamide]
	103	CS(=O)(=O)N[C@H]1CCCN(C(=O)C(F)F)[C@H]1CO[C@H]1CC[C@@H](c2ccccc2)CC1 (relative stereo) [Example 139, N-(cis-1-(difluoroacetyl)-2-(((cis-4-phenylcyclohexyl)oxy)methyl)piperidin-3-yl)methanesulfonamide]
460	95	CC(=O)N1CCC[C@H](NS(C)(=O)=O)[C@@H]1CO[C@H]1CC[C@@H](c2ccc(F)c(F)c2)CC1 (relative stereo) [Example 141, N-(cis-1-acetyl-2-(((cis-4-(3,4-difluorophenyl)cyclohexyl)oxy)methyl)piperidin-3-yl)methanesulfonamide]
4000	96	CS(=O)(=O)N[C@H]1CCCN[C@H]1CO[C@H]1CC[C@@H](c2ccc(F)cc2F)CC1 (relative stereo) [Example 142, N-(cis-2-(((cis-4-(2,4-difluorophenyl)cyclohexyl)oxy)methyl)piperidin-3-yl)methanesulfonamide]
	96	Cn1ccc([C@H]2CC[C@@H](OC[C@@H]3NCCC[C@@H]3NS(C)(=O)=O)CC2)n1 (relative stereo) [Example 143, N-(cis-2-(((cis-4-(1-methyl-1H-pyrazol-3-yl)cyclohexyl)oxy)methyl)piperidin-3-yl)methanesulfonamide]
1	104	CCNC(=O)N1CCC[C@H](NS(C)(=O)=O)[C@@H]1CO[C@H]1CC[C@@H](c2ccc(F)c(F)c2)CC1 (relative stereo) [Example 144, cis-2-(((cis-4-(3,4-difluorophenyl)cyclohexyl)oxy)methyl)-N-ethyl-3-((methylsulfonyl)amino)piperidine-1-carboxamide]
2.5	100	CCNC(=O)N1CCC[C@H](NS(C)(=O)=O)[C@@H]1CO[C@H]1CC[C@@H](c2ccc(F)cc2F)CC1 (relative stereo) [Example 146, cis-2-(((cis-4-(2,4-difluorophenyl)cyclohexyl)oxy)methyl)-N-ethyl-3-((methylsulfonyl)amino)piperidine-1-carboxamide]
490	107	COC(=O)N1CCC[C@H](NS(C)(=O)=O)[C@@H]1COC1CCN(c2ncccn2)CC1 (relative stereo) [Example 151, methyl cis-3-((methylsulfonyl)amino)-2-(((1-(pyrimidin-2-yl)piperidin-4-yl)oxy)methyl)piperidine-1-carboxylate]
	96	CS(=O)(=O)N[C@H]1CCCN(S(C)(=O)=O)[C@H]1CO[C@H]1CC[C@@H](c2ccccc2)CC1 (relative stereo) [Example 152, N-(cis-1-(methylsulfonyl)-2-(((cis-4-phenylcyclohexyl)oxy)methyl)piperidin-3-yl)methanesulfonamide]
350	95	CC(=O)N(C)CC(=O)N1CCC[C@H](NS(C)(=O)=O)[C@@H]1CO[C@H]1CC[C@@H](c2ccccc2)CC1 (relative stereo) [Example 156, N-methyl-N-(2-(cis-3-((methylsulfonyl)amino)-2-(((cis-4-phenylcyclohexyl)oxy)methyl)piperidin-1-yl)-2-oxoethyl)acetamide]

Second part, the compound before the results:

SMILES	EC50 [nM]	Emax [%]
CC(=O)N1CCC[C@H](NS(C)(=O)=O)[C@@H]1CO[C@H]1CC[C@@H](C)CC1 (relative stereo) [Example 128, N-(cis-1-acetyl-2-(((cis-4-methylcyclohexyl)oxy)methyl)piperidin-3-yl)methanesulfonamide]	2400	88
CCNC(=O)N1CCC[C@H](NS(C)(=O)=O)[C@@H]1CO[C@H]1CC[C@@H](C)CC1 (relative stereo) [Example 129, cis-N-ethyl-2-(((cis-4-methylcyclohexyl)oxy)methyl)-3-((methylsulfonyl)amino)piperidine-1-carboxamide]	39	96
CCNC(=O)N1CCC[C@H](NS(C)(=O)=O)[C@@H]1CO[C@H]1C[C@H](c2ccccc2)C1 (relative stereo) [Example 130, cis-N-ethyl-3-((methylsulfonyl)amino)-2-(((trans-3-phenylcyclobutyl)oxy)methyl)piperidine-1-carboxamide]	460	96
CCNC(=O)N1CCC[C@H](NS(C)(=O)=O)[C@@H]1CO[C@H]1CC[C@@H](c2cccc(F)c2F)CC1 (relative stereo) [Example 136, cis-2-(((cis-4-(2,3-difluorophenyl)cyclohexyl)oxy)methyl)-N-ethyl-3-((methylsulfonyl)amino)piperidine-1-carboxamide]	0.22	102
CCNC(=O)N1CCC[C@H](NS(C)(=O)=O)[C@@H]1CO[C@H]1CC[C@@H](c2cnn(C)c2)CC1 (relative stereo) [Example 137, cis-N-ethyl-2-(((cis-4-(1-methyl-1H-pyrazol-4-yl)cyclohexyl)oxy)methyl)-3-((methylsulfonyl)amino)piperidine-1-carboxamide]	240	101
CCNC(=O)N1CCC[C@H](NS(C)(=O)=O)[C@@H]1CO[C@H]1CO[C@@H](c2ccccc2)OC1 (relative stereo) [Example 140, cis-N-ethyl-3-((methylsulfonyl)amino)-2-(((cis-2-phenyl-1,3-dioxan-5-yl)oxy)methyl)piperidine-1-carboxamide]	390	92
CC(=O)N1CCC[C@H](NS(C)(=O)=O)[C@@H]1CO[C@H]1CC[C@@H](c2ccc(F)cc2F)CC1 (relative stereo) [Example 145, N-(cis-1-acetyl-2-(((cis-4-(2,4-difluorophenyl)cyclohexyl)oxy)methyl)piperidin-3-yl)methanesulfonamide]	810	106
COC(=O)N1CCC[C@H](NS(C)(=O)=O)[C@@H]1CO[C@H]1CC[C@@H](c2ccn(C)n2)CC1 (relative stereo) [Example 154, methyl cis-2-(((cis-4-(1-methyl-1H-pyrazol-3-yl)cyclohexyl)oxy)methyl)-3-((methylsulfonyl)amino)piperidine-1-carboxylate]	2400	94
CC(C)(C)OC(=O)N1CCC[C@H](NS(C)(=O)=O)[C@@H]1CO[C@H]1CC[C@@H](c2ccccc2)CC1 (relative stereo) [Example 155, tert-butyl cis-3-((methylsulfonyl)amino)-2-(((cis-4-phenylcyclohexyl)oxy)methyl)piperidine-1-carboxylate]		95
